Some test systems named below: OVCAR-5; KM12; A498; EKVX; HOP-62; SNB-19; MOLT-4; MDA-MB-435; COLO 205; MDA-N; ACHN; SF-295; MCF7; K562; NCI-H460; HOP-92; NCI-H226; HL-60; CCRF-CEM; SF-539.
Common to all, as to experiment: growth of human tumour cells (NCI), 48 h

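Following 48 hours of exposure in 96-well plates, responses at five concentrations were used to interpolate endpoints linearly. GI50 marks 50% less growth.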 Calls of active or inactive are those of the source. Cut-off read from the data, not from the text of the source: active = GI50 up to about 1.1 µM and inactive = higher. Some results are limits rather than exact numbers.

These results are taken from ChEMBL document CHEMBL1201862, “PubChem BioAssay data set” (2004).

For `Nc1nc(O)c2c(n1)NCN(c1ccc(S(N)(=O)=O)cc1)C2`, the GI50 with OVCAR-5 is > 100 µM (inactive); in the assay on KM12, > 100 µM (inactive); in the assay on A498, > 100 µM (inactive); with EKVX, > 100 µM (inactive); in the assay on HOP-62 it was 71 µM (inactive); with SNB-19 it was > 100 µM (inactive). Also, the GI50 in the assay on MOLT-4 was > 100 µM (inactive); in the assay on MDA-MB-435, > 100 µM (inactive); in the assay on COLO 205, > 100 µM (inactive); in the assay on MDA-N, > 100 µM (inactive); with ACHN it was > 100 µM (inactive); with SF-295, 85.9 µM (inactive). In addition, the GI50 in the assay with MCF7, with K562, in the assay with NCI-H460, in the assay on HOP-92 and with NCI-H226 was > 100 µM (inactive) each time.
For the molecule `Cc1ccsc1/C=N/Nc1ccc2ccccc2n1`, the GI50 with OVCAR-5 is > 100 µM (inactive); with KM12, 32.1 µM (inactive); with A498, 7.76 µM (inactive); with EKVX, 20.3 µM (inactive); in the assay with HOP-62 it was 19.8 µM (inactive); in the assay on SNB-19, 39.4 µM (inactive). The GI50 in the assay on MOLT-4 was 8.04 µM (inactive); in the assay with MDA-MB-435, 56.5 µM (inactive); in the assay on COLO 205, 27.7 µM (inactive); with HL-60, 11.8 µM (inactive); in the assay on MDA-N, 43.4 µM (inactive); with ACHN it was 15.1 µM (inactive). Besides, the GI50 is 27.5 µM (inactive) in the assay with CCRF-CEM; 11.1 µM (inactive) in the assay with SF-295; 11.4 µM (inactive) in the assay on MCF7; 59.8 µM (inactive) in the assay on K562; 17.9 µM (inactive) in the assay on HOP-92; 35.9 µM (inactive) in the assay with NCI-H226.
Regarding `Nc1nc(NCC2(CO)CC(CCc3ccccc3)C2)cc(=O)[nH]1` (stereo not given), the GI50 in the assay with OVCAR-5, in the assay with KM12, in the assay on A498, in the assay on EKVX, with HOP-62 and in the assay with SNB-19 was > 100 µM (inactive) throughout. Besides, the GI50 in the assay with MOLT-4 was 55.2 µM (inactive); in the assay on MDA-MB-435, > 100 µM (inactive); in the assay on COLO 205, > 100 µM (inactive); with HL-60, 82.8 µM (inactive); in the assay on MDA-N it was > 100 µM (inactive); in the assay on CCRF-CEM, 78.2 µM (inactive). Also, the GI50 is > 100 µM (inactive) with SF-295; > 100 µM (inactive) in the assay on MCF7; 26.2 µM (inactive) in the assay on K562; > 100 µM (inactive) in the assay on NCI-H460; > 100 µM (inactive) in the assay on HOP-92; > 100 µM (inactive) in the assay on NCI-H226.
Consider `O=C(Nc1nn(C(=O)c2ccc(Cl)cc2)c(=O)s1)c1ccc(Cl)cc1`, for which the GI50 with OVCAR-5 is > 100 µM (inactive); in the assay on KM12, > 100 µM (inactive); with A498, > 100 µM (inactive); in the assay with EKVX, 94.8 µM (inactive); in the assay on HOP-62, > 100 µM (inactive); in the assay on SNB-19, > 100 µM (inactive). Besides, the GI50 in the assay with MOLT-4, in the assay with MDA-MB-435, in the assay on COLO 205, in the assay with HL-60, in the assay with MDA-N and with ACHN was > 100 µM (inactive) in each case. Moreover, the GI50 is 76.4 µM (inactive) in the assay with CCRF-CEM; > 100 µM (inactive) in the assay on SF-295; > 100 µM (inactive) in the assay on MCF7; 77.8 µM (inactive) in the assay on K562; > 100 µM (inactive) in the assay on NCI-H460; > 100 µM (inactive) in the assay on HOP-92. The GI50 in the assay on NCI-H226 was > 100 µM (inactive).
With `COC(=O)C(C)(C)NC(=O)C(Cc1ccccc1)Nc1ncnc2c1ncn2-c1ccc(OC)cc1` (stereo not given), the GI50 in the assay with OVCAR-5 is 42.2 µM (inactive); in the assay with KM12, 25.6 µM (inactive); in the assay with A498, 20.1 µM (inactive); in the assay with EKVX, 10.8 µM (inactive); in the assay with HOP-62, 35.2 µM (inactive); with SNB-19 it was > 100 µM (inactive). The GI50 is > 10 µM (inactive) in the assay on MOLT-4; 14.9 µM (inactive) with MDA-MB-435; 17.7 µM (inactive) in the assay on COLO 205; 20.3 µM (inactive) with MDA-N; > 100 µM (inactive) with ACHN; 13.5 µM (inactive) with CCRF-CEM. For the same molecule, the GI50 in the assay on SF-295 is 73.1 µM (inactive); in the assay with MCF7, 23 µM (inactive); in the assay on K562, > 100 µM (inactive); in the assay with NCI-H460, 22.9 µM (inactive); with HOP-92, 22.8 µM (inactive); with NCI-H226, 32.1 µM (inactive).
`COc1ccc(N2C=Nn3c(nc4sc5c(c4c3=O)CCCC5)C2)cc1`: the GI50 in the assay with OVCAR-5 was 32.4 µM (inactive); in the assay on KM12, > 100 µM (inactive); in the assay with A498, 14 µM (inactive); with EKVX, 73.6 µM (inactive); in the assay on HOP-62, 3.09 µM (inactive); in the assay on SNB-19, 28.2 µM (inactive). The GI50 with MOLT-4 was > 100 µM (inactive); in the assay with MDA-MB-435 it was > 100 µM (inactive); with COLO 205, > 100 µM (inactive); in the assay on MDA-N, > 100 µM (inactive); in the assay with ACHN it was 12.1 µM (inactive); with CCRF-CEM, > 100 µM (inactive). Moreover, the GI50 in the assay on SF-295 is 18.3 µM (inactive); with MCF7, > 100 µM (inactive); with K562, > 100 µM (inactive); in the assay on NCI-H460 it was 86.9 µM (inactive); with HOP-92 it was 12.2 µM (inactive); in the assay with NCI-H226, 84.3 µM (inactive).
Take `CS(=O)(=O)c1ccc(/C=N/NC(N)=S)cc1`: the GI50 in the assay on OVCAR-5, in the assay on KM12, in the assay with A498, in the assay with EKVX, in the assay on HOP-62 and with SNB-19 was > 100 µM (inactive) each time. Moreover, the GI50 in the assay with MOLT-4, in the assay with MDA-MB-435, in the assay with COLO 205, in the assay with HL-60, in the assay on MDA-N and in the assay with ACHN was > 100 µM (inactive) each time. For the same molecule, the GI50 in the assay with SF-295, in the assay on MCF7, in the assay on K562, in the assay with NCI-H460, in the assay on HOP-92 and in the assay on NCI-H226 was > 100 µM (inactive) each time.
With `CCOC(=O)c1ccc(Nc2nc3ccccc3n3cccc23)cc1`, the GI50 is > 100 µM (inactive) with OVCAR-5; 28.1 µM (inactive) with KM12; 46 µM (inactive) in the assay with A498; 31.3 µM (inactive) in the assay on EKVX; 25.7 µM (inactive) in the assay on HOP-62; 35.2 µM (inactive) in the assay with SF-539. The GI50 with SNB-19 is 52.5 µM (inactive); with MOLT-4, > 100 µM (inactive); in the assay with MDA-MB-435, 3.27 µM (inactive); in the assay with COLO 205 it was > 100 µM (inactive); in the assay on HL-60 it was < 0.01 µM (active); with MDA-N, 3.15 µM (inactive). For the same molecule, the GI50 with ACHN is 72.8 µM (inactive); in the assay with CCRF-CEM it was 0.0217 µM (active); in the assay with SF-295 it was 27.1 µM (inactive); in the assay on MCF7 it was 32 µM (inactive); in the assay on K562, 29.8 µM (inactive); in the assay with NCI-H460, 84.7 µM (inactive). Moreover, the GI50 in the assay with HOP-92 is 52.7 µM (inactive).
